Experimental data reported in publication PMC5460289, “Identification of New Shikonin Derivatives as Antitumor Agents Targeting STAT3 SH2 Domain” (Scientific Reports, 2017).

Columns and labels:
[1] = MTT anti-proliferation assay, non-tumorigenic cells; format: cell-based; settings: human, non-tumorigenic MCF-10A cells, 24 h treatment
Protocol: (§1) Initial experiments were performed for evaluation of growth inhibition by the new compounds against six human breast cancer cell lines, including MCF-7 (ER+/PR+, HER-2-), BT474 (ER+/PR+, HER-2+), SKBR-3 (ER-/PR-/HER-2+), MDA-MB-436 (ER-/PR-/HER-2-), MDA-MB-231 (ER-/PR-/HER-2-), MDA-MB-468 (ER-/PR-/HER-2-) and non-tumorigenic MCF-10A cells. After 24 h treatment by the obtained compounds, the inhibition was assessed and the IC50 was summarized. […] Subsequently, the inhibition of STAT3 activation by PMM-172 and Stattic was evaluated using a dual-luciferase assay.
(§2) The anti-proliferative activities of the prepared compounds against MCF-7 (ER+/PR+, HER-2-), BT474 (ER+/PR+, HER-2+), SKBR-3 (ER-/PR-/HER-2+), MDA-MB-436 (ER-/PR-/HER-2-), MDA-MB-231 (ER-/PR-/HER-2-), MDA-MB-468 (ER-/PR-/HER-2-) and non-tumorigenic MCF-10A cell lines were evaluated using a standard (MTT)-based colorimetric assay with some modification. Cell lines were grown to log phase in DMEM supplemented with 10% fetal bovine serum. Cell suspensions were prepared and 100 μL/well dispensed into 96-well plates giving 10^4 cells/well. The subsequent incubation was permitted at 37 °C, 5% CO2 atmosphere for 24 h to allow the cells to reattach. Subsequently, cells were treated with the target compounds at increasing concentrations in the presence of 10% FBS for 24 h. Then, cell viability was assessed by the conventional 3-(4, 5-dimethylthiazol-2-yl)-2, 5-diphenyltetrazolium bromide (MTT) reduction assay and carried out strictly according to the manufacturer instructions. The absorbance (OD570) was read on an ELISA reader (Tecan, Austria). In all experiments, three replicate wells were used for each drug concentration. Each assay was carried out for at least three times.

[2] = system: BT-474; assay: MTT anti-proliferation assay; format: cell-based, human; settings: Homo sapiens, BT-474, 24 h treatment
Protocol: as §1, §2

[3] = system: MCF-7; assay: MTT anti-proliferation assay; format: cell-based, human; settings: Homo sapiens, MCF7, 24 h treatment
Protocol: as §1, §2

[4] = system: MDA-MB-231; assay: MTT anti-proliferation assay; format: cell-based, human; settings: Homo sapiens, MDA-MB-231, 24 h treatment
Protocol: as §1, §2

[5] = system: MDA-MB-436; assay: MTT anti-proliferation assay; format: cell-based, human; settings: Homo sapiens, MDA-MB-436, 24 h treatment
Protocol: as §1, §2

[6] = system: MDA-MB-468; assay: MTT anti-proliferation assay; format: cell-based, human; settings: Homo sapiens, MDA-MB-468, 24 h treatment
Protocol: as §1, §2

[7] = system: SKBR-3; assay: MTT anti-proliferation assay; format: cell-based, human; settings: Homo sapiens, SK-BR-3, 24 h treatment
Protocol: as §1, §2

IC50 [2]	IC50 [3]	IC50 [4]	IC50 [5]	IC50 [6]	IC50 [7]	SMILES	CC50 at 24 h [1]
6.91 ± 0.73 µM	6.41 ± 0.75 µM	3.64 ± 0.91 µM	4.66 ± 0.59 µM	4.07 ± 0.66 µM	4.87 ± 0.58 µM	CC(C)=CC[C@@H](OC(=O)CSc1nnc(-c2cccc(Br)c2)o1)C1=CC(=O)c2c(O)ccc(O)c2C1=O [PMM-166, (R)-1-(5,8-dihydroxy-1,4-dioxo-1,4-dihydronaphthalen-2-yl)-4-methylpent-3-en-1-yl 2-((5-(3-bromophenyl)-1,3,4-oxadiazol-2-yl)thio)acetate]	69.9 ± 0.58 µM
13.7 ± 0.92 µM	15.3 ± 0.61 µM	9.01 ± 0.56 µM	10.6 ± 0.82 µM	12.2 ± 0.42 µM	9.76 ± 0.95 µM	CC(C)=CC[C@@H](OC(=O)CSc1nnc(-c2ccccc2Br)o1)C1=CC(=O)c2c(O)ccc(O)c2C1=O [PMM-167, (R)-1-(5,8-dihydroxy-1,4-dioxo-1,4-dihydronaphthalen-2-yl)-4-methylpent-3-en-1-yl 2-((5-(2-bromophenyl)-1,3,4-oxadiazol-2-yl)thio)acetate]	72.5 ± 1.53 µM
8.36 ± 0.97 µM	8.12 ± 0.98 µM	5.33 ± 0.77 µM	7.36 ± 0.87 µM	7.22 ± 1.11 µM	6.95 ± 0.82 µM	COc1cccc(-c2nnc(SCC(=O)O[C@H](CC=C(C)C)C3=CC(=O)c4c(O)ccc(O)c4C3=O)o2)c1 [PMM-169, (R)-1-(5,8-dihydroxy-1,4-dioxo-1,4-dihydronaphthalen-2-yl)-4-methylpent-3-en-1-yl 2-((5-(3-methoxyphenyl)-1,3,4-oxadiazol-2-yl)thio)acetate]	99.5 ± 0.49 µM
